Test system: AMP-evoked hyperlocomotion
Test: Amphetamine-evoked hyperlocomotion in rats (open field)
Type: in vivo
Conditions: adult male Sprague Dawley rats; 0.5 mg/kg amphetamine s.c.; distance traveled during the last 60 minutes of the 90-minute session
Protocol: Compounds may be tested for ability to impact behavior activity of rats according to the following procedures. Animals: Adult male, Sprague Dawley rats (Envigo, Indianapolis, IN, USA) are housed in a colony maintained at 23° C. with 12 h light/dark cycles (lights on at 0600 hours). All animals weigh 290-330 g at the beginning of the study and are equally divided into 5 groups (n=8 per group) and received one of the treatment conditions listed below. Behavioral Procedures: Studies are conducted in MedAssociates open field chambers (27.3 cm×27.3 cm×20.3 cm, MedAssociates, St. Albans, VT) in which movement is automatically tracked and recorded by 16 beam arrays. The administration pretreatment of the test article is determined to coincide with Tmax at the time of the amphetamine-evoked session with optimal route of administration. All groups are subcutaneously treated with 0.5 mg/kg amphetamine (AMP). The test article is tested in three dose groups with a half-log increase between doses. […] Locomotor data (distance traveled) is recorded as 5-minute bins throughout the 90-minute session. […] Statistical Analysis: Spontaneous locomotion (prior to AMP administration) is calculated as the total distance traveled during the first 30 minutes of the experimental session. AMP-evoked responses are calculated as the total distance traveled during the last 60 minutes of the experimental session which commenced immediately after AMP administration. Locomotor data may be analyzed by a one-way ANOVA. When there is a significant overall ANOVA, post hoc comparisons may be made by Dunnett's test with statistical significance determined as p<0.05. […] Behavioral Procedures: Studies were conducted in MedAssociates open field chambers (27.3 cm×27.3 cm×20.3 cm, MedAssociates, St. Albans, VT) in which movement was automatically tracked and recorded by 16 beam arrays. Administration pretreatment of the test article was determined to coincide with Tmax at the time of the amphetamine-evoked session with optimal route of administration. […]

Structure (SMILES)	Dose Amount of Compound at which rats displayed a reduction in amphetamine-evoked hyperlocomotion activity
Cc1c2c(n(C)c(=O)c1Cl)CN(C(=O)c1cnn(C(F)(F)F)c1)C2 [Compound I-1, 3-chloro-1,4-dimethyl-6-(1-(Trifluoromethyl)-1H-pyrazole-4-carbonyl)-1,5,6,7-tetrahydro-2H-pyrrolo[3,4-b]pyridin-2-one]	32 mg/kg
Cc1c2c(n(C)c(=O)c1Cl)CN(C(=O)c1cnn(C(F)(F)F)c1)[C@@H]2C [Compound I-76, (R)-3-Chloro-1,4,5-trimethyl-6-(1-(trifluoromethyl)-1H-pyrazole-4-carbonyl)-1,5,6,7-tetrahydro-2H-pyrrolo[3,4-b]pyridin-2-one]	3.2 mg/kg
COc1c2c(n(C)c(=O)c1C)CN(C(=O)c1cnn(C(F)(F)F)c1)C2 [Compound I-87]	32 mg/kg

Reference: patent US12421242B2, “Substituted tetrahydropyrrolo-pyridinone compounds and their use in treating medical conditions” (Karuna Therapeutics, Inc., priority 2022, dated 2025)
